Earlier results as cited in patent US20210236687A1, “CANNABINOID-BASED ORAL HEMOSTATIC COMPOSITIONS” (Pac-Dent, Inc., priority 2020, published 2021).

Columns and labels:
[1] = in vivo
[2] = tested on: MCP-2 chemokine and other proinflammatory cytokines; details: Petrosino et al. 2018; inhibition of production of MCP-2 chemokine and other proinflammatory cytokines
[3] = tested on: methicillin-resistant Staphylococcus aureus strains (MRSA); details: European research
[4] = in vivo; remark: listed apart in the source
[5] = Evans 1991

CCCCCc1cc(O)c2c(c1)OC(C)(CCC=C(C)C)C=C2 (stereo not shown) [CBC, cannabichromene]
pain and inflammation associated with collagen-induced osteoarthritis [1]: block pain and inflammation | anti-inflammatory properties in an in vitro model of allergic contact dermatitis [2]: some anti-inflammatory benefits

CCCCCc1cc(O)c(C/C=C(\C)CCC=C(C)C)c(O)c1 [CBG, cannabigerol]
antibacterial effect against MRSA strains resistant to several classes of drugs [3]: effective antibacterial agent | inflammation characteristics in animal experiments [4]: effective in decreasing the inflammation characteristics | anti-inflammatory properties in an in vitro model of allergic contact dermatitis [2]: some anti-inflammatory benefits

C=C(C)[C@@H]1CCC(C)=C[C@H]1c1c(O)cc(CCC)cc1O [CBDV, cannabidivarin]
anti-inflammatory properties in an in vitro model of allergic contact dermatitis [2]: some anti-inflammatory benefits

C=C(C)[C@@H]1CCC(C)=C[C@H]1c1c(O)cc(CCCCC)cc1O [CBD, cannabidiol, reference compound]
anti-inflammatory properties in an in vitro model of allergic contact dermatitis [2]: potent anti-inflammatory properties

CCCCCc1cc(O)c2c(c1)OC(C)(C)[C@@H]1CCC(C)=C[C@@H]21 [THC, tetrahydrocannabinol]
anti-inflammatory potency relative to aspirin [5]: twenty times | anti-inflammatory potency relative to hydrocortisone [5]: twice | cyclooxygenase (COX) inhibition (cyclooxygenase (COX)): without any cyclooxygenase (COX) inhibition
